From patent US7192906B2, “Substituted pyrazole derivatives, production process thereof, and herbicide compositions containing the derivatives” (SDS Biotech K.K., priority 2001, dated 2007) come the findings set out here.

Holding throughout (assay type): in vivo
The subject of data set [1] is Chenopodium album. Nature of the data set: Test Example 1 upland field foliage treatment. As to conditions: Table 4, upland field foliage treatment, index 0-5. The procedure, abridged:
(§1)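 A leaf-surface application at an active-ingredient rate of 1 kg per hectare was made to 14-day-old plants in upland soil. Evaluation followed 21 days later using a six-grade scale, where grade 5 means at least 90% kill or phytotoxicity.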

Data set [2] concerns Digitaria adscendens. Put plainly: Test Example 1 upland field foliage treatment. As to conditions: Table 4, upland field foliage treatment, index 0-5. The procedure, abridged:
as §1

Data set [3] relates to Setaria viridis. Nature of the data set: Test Example 1 upland field foliage treatment. As to conditions: Table 4, upland field foliage treatment, index 0-5. The procedure, abridged: as §1
The subject of data set [4] is Stellaria media. Put plainly: Test Example 1 upland field foliage treatment. The following applies: Table 4, upland field foliage treatment, index 0-5. The procedure, abridged: as §1
Data set [5] concerns soybean (Glycine max). Put plainly: Test Example 1 upland field foliage treatment, crop phytotoxicity. The following applies: Table 4, upland field foliage treatment, index 0-5. The procedure, abridged: as §1
Data set [6] concerns wheat (Triticum aestivum). Described as above. As to conditions: Table 4, upland field foliage treatment, index 0-5. The procedure, abridged:
as §1

Data set [7] deals with Chenopodium album. Put plainly: Test Example 2 upland soil treatment. The following applies: Table 5, upland soil treatment, index 0-5. The procedure, abridged: (§2)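 Dose of 1 kg active ingredient per hectare, given as diluted wettable powder to the soil surface the day after sowing in upland soil (~1 cm cover). Effect rated 21 days on: 5 for ≥90%, 4 for 70–<90%, down to 0 for <10%.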

For data set [8], the system named is Digitaria adscendens. Put plainly: Test Example 2 upland soil treatment. As to conditions: Table 5, upland soil treatment, index 0-5. The procedure, abridged:
as §2

The test system of data set [9] is Setaria viridis. Put plainly: Test Example 2 upland soil treatment. The following applies: Table 5, upland soil treatment, index 0-5. The procedure, abridged:
as §2

Data set [10] has as its system Stellaria media. Nature of the data set: Test Example 2 upland soil treatment. As to conditions: Table 5, upland soil treatment, index 0-5. The procedure, abridged:
as §2

Data set [11] concerns soybean (Glycine max). Nature of the data set: Test Example 2 upland soil treatment, crop phytotoxicity. As to conditions: Table 5, upland soil treatment, index 0-5. The procedure, abridged: as §2
For data set [12], the system named is wheat (Triticum aestivum). The description is as above. The following applies: Table 5, upland soil treatment, index 0-5. The procedure, abridged:
as §2

Data set [13] has as its system Ammannia multiflora. Put plainly: Test Example 3 paddy field treatment. As to conditions: active ingredient 1 kg per hectare, index 0-5. The procedure, abridged: (§3)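 Scoring used a 0–5 scale of herbicidal effect or phytotoxicity, from <10% to ≥90%, taken 21 days after treatment. Treatment was 1 kg a.i./ha as diluted wettable powder dripped onto 4 cm-deep flooded pots sown with the weeds, 10 days after transplanting two-leaf Koshihikari rice.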

Data set [14] relates to Echinochloa crusgalli. Nature of the data set: Test Example 3 paddy field treatment. As to conditions: active ingredient 1 kg per hectare, index 0-5. The procedure, abridged:
as §3

Data set [15] relates to Monochoria vaginalis. Put plainly: Test Example 3 paddy field treatment. As to conditions: active ingredient 1 kg per hectare, index 0-5. The procedure, abridged:
as §3

For data set [16], the system named is Scirpus juncoides. Nature of the data set: Test Example 3 paddy field treatment. As to conditions: active ingredient 1 kg per hectare, index 0-5. The procedure, abridged:
as §3

The subject of data set [17] is Rice (Oryza sativa). Put plainly: Test Example 3 paddy field treatment, crop phytotoxicity. As to conditions: active ingredient 1 kg per hectare, index 0-5; for Herbicidal activity OS (phytotoxicity to rice): paddy field treatment, transplanted rice Koshihikari, wettable powder, 21st day after the dropping. The procedure, abridged: as §3
Setting [18] is: paddy field treatment, wettable powder, 21st day after the dropping.
Where [19] appears, read: Table 6, paddy field treatment, 21st day after dropping.

As to `CNC(=O)C(Cn1cc(C)c(-c2ccc(Cl)cc2)n1)=NOC` [Compound 47], the “Herbicidal activity CA: Chenopodium album” value (shortened to “Herbicidal activity CA”) in data set [1] is on record as 5 (herbicidal effect of not less than 90%, or phytotoxicity of 90% or more); in data set [7], 5 (herbicidal effect of not less than 90%, or phytotoxicity of 90% or more). For the same molecule, the “Herbicidal activity DA: Digitaria adscendens” value (from here on “Herbicidal activity DA”) in data set [2] is on record as 5 (herbicidal effect of not less than 90%, or phytotoxicity of 90% or more); in [8], 5 (herbicidal effect of not less than 90%, or phytotoxicity of 90% or more). The “Herbicidal activity SV: Setaria viridis” value in [3] was 5 (herbicidal effect of not less than 90%, or phytotoxicity of 90% or more); in [9], 5 (herbicidal effect of not less than 90%, or phytotoxicity of 90% or more). Moreover, the “Herbicidal activity SM: Stellaria media” value in data set [4] is reported as 5 (herbicidal effect of not less than 90%, or phytotoxicity of 90% or more); in [10], 5 (herbicidal effect of not less than 90%, or phytotoxicity of 90% or more). Moreover, the “Herbicidal activity (phytotoxicity) GM: Soybean (Glycine max)” value (shortened to “Herbicidal activity (phytotoxicity) GM”) in [5] was 0 (herbicidal effect of not less than 0% and less than 10%, or phytotoxicity of 0% or more and less than 10%); in data set [11], 0 (herbicidal effect of not less than 0% and less than 10%, or phytotoxicity of 0% or more and less than 10%). The “Herbicidal activity (phytotoxicity) TA: Wheat (Triticum aestivum)” value (from here on “Herbicidal activity (phytotoxicity) TA”) in data set [6] is 0 (herbicidal effect of not less than 0% and less than 10%, or phytotoxicity of 0% or more and less than 10%); in [12] it was 0 (herbicidal effect of not less than 0% and less than 10%, or phytotoxicity of 0% or more and less than 10%). In addition, in data set [13] (setting [18]), the “Herbicidal activity AM” value is recorded as 5 (herbicidal effect of not less than 90%, or phytotoxicity of 90% or more). Also, in data set [14] (setting [18]), the “Herbicidal activity EC” value is 5 (herbicidal effect of not less than 90%, or phytotoxicity of 90% or more). Also, the “Herbicidal activity MV” value in [15] (setting [18]) is given as 5 (herbicidal effect of not less than 90%, or phytotoxicity of 90% or more). Also, in [16] (setting [18]), the “Herbicidal activity SJ” value is recorded as 5 (herbicidal effect of not less than 90%, or phytotoxicity of 90% or more). In data set [17], the “Herbicidal activity OS (phytotoxicity to rice)” value is 0 (herbicidal effect of not less than 0% and less than 10%, or phytotoxicity of 0% or more and less than 10%).
On to `CCc1cn(CC(=NOC)C(=O)NC)nc1-c1ccccc1` [Compound 98], for which the “Herbicidal activity CA” value in [1] is 4 (herbicidal effect of not less than 70% and less than 90%, or phytotoxicity of 70% or more and less than 90%); in data set [7], 4 (herbicidal effect of not less than 70% and less than 90%, or phytotoxicity of 70% or more and less than 90%). Further, the “Herbicidal activity DA” value in data set [2] is 4 (herbicidal effect of not less than 70% and less than 90%, or phytotoxicity of 70% or more and less than 90%); in data set [8], 4 (herbicidal effect of not less than 70% and less than 90%, or phytotoxicity of 70% or more and less than 90%). The “Herbicidal activity SV: Setaria viridis” value is 3 (herbicidal effect of not less than 50% and less than 70%, or phytotoxicity of 50% or more and less than 70%) in [3]; 3 (herbicidal effect of not less than 50% and less than 70%, or phytotoxicity of 50% or more and less than 70%) in [9]. Further, the “Herbicidal activity SM: Stellaria media” value in [4] was 4 (herbicidal effect of not less than 70% and less than 90%, or phytotoxicity of 70% or more and less than 90%); in data set [10], 5 (herbicidal effect of not less than 90%, or phytotoxicity of 90% or more). For the same molecule, the “Herbicidal activity (phytotoxicity) GM” value is 0 (herbicidal effect of not less than 0% and less than 10%, or phytotoxicity of 0% or more and less than 10%) in data set [5]; 0 (herbicidal effect of not less than 0% and less than 10%, or phytotoxicity of 0% or more and less than 10%) in [11]. The “Herbicidal activity (phytotoxicity) TA” value in data set [6] was 0 (herbicidal effect of not less than 0% and less than 10%, or phytotoxicity of 0% or more and less than 10%); in data set [12] it was 0 (herbicidal effect of not less than 0% and less than 10%, or phytotoxicity of 0% or more and less than 10%). Moreover, in data set [13] (setting [19]), the “Herbicidal activity AM” value was 4 (herbicidal effect of not less than 70% and less than 90%, or phytotoxicity of 70% or more and less than 90%). Moreover, in [14] (setting [19]), the “Herbicidal activity EC” value was 5 (herbicidal effect of not less than 90%, or phytotoxicity of 90% or more). Also, the “Herbicidal activity MV” value in [15] (setting [19]) is on record as 5 (herbicidal effect of not less than 90%, or phytotoxicity of 90% or more). Also, in data set [16] (setting [19]), the “Herbicidal activity SJ” value was 4 (herbicidal effect of not less than 70% and less than 90%, or phytotoxicity of 70% or more and less than 90%). In data set [17] (Table 6, paddy field treatment, transplanted rice, 21st day after dropping), the “Herbicidal activity (phytotoxicity) OS” value was 0 (herbicidal effect of not less than 0% and less than 10%, or phytotoxicity of 0% or more and less than 10%).
As to `CON=C(Cn1cc(C)c(-c2ccccc2)n1)C(=O)NC(C)C` [Compound 20], the “Herbicidal activity CA” value is 5 (herbicidal effect of not less than 90%, or phytotoxicity of 90% or more) in [1]; 3 (herbicidal effect of not less than 50% and less than 70%, or phytotoxicity of 50% or more and less than 70%) in data set [7]. In addition, the “Herbicidal activity DA” value in data set [2] was 3 (herbicidal effect of not less than 50% and less than 70%, or phytotoxicity of 50% or more and less than 70%); in data set [8] it was 4 (herbicidal effect of not less than 70% and less than 90%, or phytotoxicity of 70% or more and less than 90%). The “Herbicidal activity SV: Setaria viridis” value was 2 (herbicidal effect of not less than 30% and less than 50%, or phytotoxicity of 30% or more and less than 50%) in data set [3]; 3 (herbicidal effect of not less than 50% and less than 70%, or phytotoxicity of 50% or more and less than 70%) in data set [9]. Moreover, the “Herbicidal activity SM: Stellaria media” value was 5 (herbicidal effect of not less than 90%, or phytotoxicity of 90% or more) in [4]; 4 (herbicidal effect of not less than 70% and less than 90%, or phytotoxicity of 70% or more and less than 90%) in data set [10]. In addition, the “Herbicidal activity (phytotoxicity) GM” value in [5] was 0 (herbicidal effect of not less than 0% and less than 10%, or phytotoxicity of 0% or more and less than 10%); in data set [11], 0 (herbicidal effect of not less than 0% and less than 10%, or phytotoxicity of 0% or more and less than 10%). Besides, the “Herbicidal activity (phytotoxicity) TA” value is 0 (herbicidal effect of not less than 0% and less than 10%, or phytotoxicity of 0% or more and less than 10%) in [6]; 0 (herbicidal effect of not less than 0% and less than 10%, or phytotoxicity of 0% or more and less than 10%) in data set [12]. The “Herbicidal activity AM” value in data set [13] (setting [18]) is 4 (herbicidal effect of not less than 70% and less than 90%, or phytotoxicity of 70% or more and less than 90%). In data set [14] (setting [18]), the “Herbicidal activity EC” value was 5 (herbicidal effect of not less than 90%, or phytotoxicity of 90% or more). Also, in data set [15] (setting [18]), the “Herbicidal activity MV” value is 5 (herbicidal effect of not less than 90%, or phytotoxicity of 90% or more). Besides, the “Herbicidal activity SJ” value in data set [16] (setting [18]) was 4 (herbicidal effect of not less than 70% and less than 90%, or phytotoxicity of 70% or more and less than 90%). Moreover, the “Herbicidal activity OS (phytotoxicity to rice)” value in data set [17] is 0 (herbicidal effect of not less than 0% and less than 10%, or phytotoxicity of 0% or more and less than 10%).
